BindingDB's records for doi:10.1111/j.1747-0285.2012.01443.x (Pfizer, 2012)

Molecular target: Tyrosine-protein kinase SYK (Homo sapiens, UniProt P43405)
Experiment: Syk Enzyme Assay
Conditions: pH 7.4; 25 °C
From the text: A Lance TR-FRET assay (Perkin Elmer) was used to measure and compare the potency of compounds against Syk kinase domain.

- IC50: 320 nM
Structure (SMILES): COc1cc2nccc(Oc3ccc(NC(=O)N[C@@H]4C[C@H]4c4ccccc4)nc3)c2cc1OC [Dimethoxyquinoline, 1]
